# In US9334289B2, “Cephem compound having catechol or pseudo-catechol structure” (SHIONOGI & CO., LTD., priority 2011, dated 2016):
# Where two headings read alike, the source gives them in different places.
# What was measured:
# Assay in all cases: MIC, CLSI broth microdilution, Test Example 1
# Assay type in all cases: cell-based
# P. aeruginosa SR24 = details: Pseudomonas aeruginosa
# P. aeruginosa SR27060 = details: Pseudomonas aeruginosa
# Protocol: (§1) Measurement of Minimum Inhibitory Concentration (MIC: μg/mL) was conducted according to CLSI (Clinical and Laboratory Standards Institute) method, and the amount of bacteria for inoculation was 5×10^5 cfu/mL, and cation-adjusted Mueller Hinton broth containing human apo-transferrin was used as a test medium, and the experiment was conducted using broth microdilution method. The bacteria used are listed below.
# E. coli ATCCBAA-199 = details: Escherichia coli, ATCCBAA199; SHV-3 ESBL producing strain; cation-adjusted Mueller Hinton broth containing human apo-transferrin; 5×10^5 cfu/mL; read-out: Minimum Inhibitory Concentration (MIC) E. coli ATCC BAA-199
# Protocol: as §1
# [1] = test system: K. pneumoniae ATCCBAA-1705; details: Klebsiella pneumoniae
# Protocol: as §1
# E. coli ATCCBAA-200 = details: Escherichia coli, ATCCBAA200; SHV-4 ESBL producing strain; cation-adjusted Mueller Hinton broth containing human apo-transferrin; 5×10^5 cfu/mL; read-out: Minimum Inhibitory Concentration (MIC) E. coli ATCC BAA-200
# Protocol: as §1
# P. aeruginosa SR24837 = details: Pseudomonas aeruginosa
# Protocol: as §1
# A. baumannii SR27323 = details: Acinetobacter baumannii
# Protocol: as §1
# [2] = SR24, Ceftazidime resistance strain, cation-adjusted Mueller Hinton broth containing human apo-transferrin, 5×10^5 cfu/mL, read-out: Minimum Inhibitory Concentration (MIC) P. aeruginosa SR24
# [3] = SR27060, IMP-1 MBL producing strain (carbapenem resistance strain), cation-adjusted Mueller Hinton broth containing human apo-transferrin, 5×10^5 cfu/mL, read-out: Minimum Inhibitory Concentration (MIC) P. aeruginosa SR27060
# [4] = ATCCBAA1705, KPC-2 carbapenemase producing strain, cation-adjusted Mueller Hinton broth containing human apo-transferrin, 5×10^5 cfu/mL, read-out: Minimum Inhibitory Concentration (MIC) K. pneumoniae ATCCBAA-1705
# [5] = SR24837, PER-1 ESBL producing strain, cation-adjusted Mueller Hinton broth containing human apo-transferrin, 5×10^5 cfu/mL, read-out: Minimum Inhibitory Concentration (MIC) P. aeruginosa SR24837
# [6] = SR27323, OXA-23, OXA-58 carbapenemase producing strain, cation-adjusted Mueller Hinton broth containing human apo-transferrin, 5×10^5 cfu/mL, read-out: Minimum Inhibitory Concentration (MIC) A. baumannii SR27323
Compound,"MIC (P. aeruginosa SR24; SR24, read-out: Minimum Inhibitory Concentration (MIC) P. aeruginosa SR24) [µg/mL]","MIC (P. aeruginosa SR27060; SR27060, read-out: Minimum Inhibitory Concentration (MIC) P. aeruginosa SR27060) [µg/mL]",MIC (E. coli ATCCBAA-199) [µg/mL],"MIC ([1]; ATCCBAA1705, read-out: Minimum Inhibitory Concentration (MIC) K. pneumoniae ATCCBAA-1705) [µg/mL]",MIC (E. coli ATCCBAA-200) [µg/mL],"MIC (P. aeruginosa SR24837; SR24837, read-out: Minimum Inhibitory Concentration (MIC) P. aeruginosa SR24837) [µg/mL]","MIC (A. baumannii SR27323; SR27323, read-out: Minimum Inhibitory Concentration (MIC) A. baumannii SR27323) [µg/mL]",MIC (P. aeruginosa SR24; [2]) [µg/mL],MIC (P. aeruginosa SR27060; [3]) [µg/mL],"MIC [1, 4] [µg/mL]",MIC (P. aeruginosa SR24837; [5]) [µg/mL],MIC (A. baumannii SR27323; [6]) [µg/mL]
CC(C)(O/N=C(\C(=O)N[C@@H]1C(=O)N2C(c3nnn[n-]3)=C(C[n+]3ccc(CNC(=O)c4ccc(O)c(O)c4Cl)cc3)CS[C@H]12)c1csc(N)n1)C(=O)[O-].[Na+] [Compound I-71],0.063,0.25,0.25,≤ 0.031,0.5,1,1,,,,,
CC(C)(O/N=C(\C(=O)N[C@@H]1C(=O)N2C(c3nnn[n-]3)=C(Cn3cc[n+](CCNC(=O)c4ccc(O)c(O)c4Cl)c3)CS[C@H]12)c1csc(N)n1)C(=O)[O-].[Na+] [Compound I-74],,,0.063,,0.125,,,0.125,0.25,≤ 0.031,0.5,0.5
CC(C)(O/N=C(\C(=O)N[C@@H]1C(=O)N2C(c3nn[n-]n3)=C(C[N+]3(Cc4nnc(-c5ccc(O)c(O)c5Cl)o4)CCCC3)CS[C@H]12)c1csc(N)n1)C(=O)[O-].[Na+] [Compound I-45],,,0.125,,0.25,,,0.125,0.5,≤ 0.031,0.5,0.25
CC(C)(O/N=C(\C(=O)N[C@@H]1C(=O)N2C(c3nnn[n-]3)=C(C[N+]3(CCNC(=O)c4ccc(O)c(O)c4F)CCCC3)CS[C@H]12)c1csc(N)n1)C(=O)[O-].[Na+] [Compound I-54],,,0.25,,0.5,,,≤ 0.031,0.25,≤ 0.031,0.25,1
CC(C)(O/N=C(\C(=O)N[C@@H]1C(=O)N2C(c3nnn[nH]3)=C(C[n+]3cccc4c(NC(=O)c5ccc(O)c(O)c5Cl)cccc43)CS[C@H]12)c1csc(N)n1)C(=O)[O-] [Compound I-76],,,0.25,,0.5,,,0.125,0.5,≤ 0.031,0.125,0.5
CC(C)(O/N=C(\C(=O)N[C@@H]1C(=O)N2C(c3nnn[n-]3)=C(C[n+]3cccc(NC(=O)c4ccc(O)c(O)c4Cl)c3)CS[C@H]12)c1csc(N)n1)C(=O)[O-].[Na+] [Compound I-73],,,0.063,,0.125,,,0.125,0.25,≤ 0.031,0.25,0.25
CC(C)(O/N=C(\C(=O)N[C@@H]1C(=O)N2C(c3nnn[n-]3)=C(C[N+]34CCCC3(CNC(=O)c3ccc(O)c(O)c3Cl)CCC4)CS[C@H]12)c1cnc(N)s1)C(=O)[O-].[Na+] (stereo partly shown) [Compound I-80],,,0.5,,1,,,≤ 0.031,0.25,≤ 0.031,0.125,2
